Experimental findings from patent publication US10668061B2, “Mouse with D4R iRNA in the intercalating cell mass of the amygdala” (POSTECH ACADEMY-INDUSTRY FOUNDATION, priority 2016, dated 2020) are described below.

Assay [1] relates to dorsal ITC neurons. As to the kind of experiment: STDP-induced DA-dependent LTD (DA-LTD) in dorsal ITC neurons, amygdala slice whole-cell recordings. The class given is cell-based, mice. The conditions noted are these: for induction of LTD at the dorsal ITC by receptor agonist: STDP protocol, agonist in place of DA; for effect on DA-LTD: STDP protocol in presence of DA, antagonists in optimal concentrations selective for each receptor, naive mice.

The test system of assay [2] is dorsal ITC neurons. The assay can be described thus: STDP-induced LTD in dorsal ITC in amygdala slices after weak fear conditioning. The class given is cell-based, mice. As to conditions: for induction of LTD after weak fear conditioning: wild-type mice, slices after weak fear conditioning, drug applied to slices. The protocol: (§1) Fear conditioning trainings were conducted in context A within sound-attenuating conditions (Panlab, Spain). Tone CS (conditioned stimulus) was delivered with a speaker while electric foot shock US (unconditioned stimulus) was applied through a floor grid attached to a shock generator (Panlab). The chambers were also equipped with infrared webcams connected to a personal computer to store animal behavior. Mice were placed in the context A for 2 minutes of acclimation and were then presented with auditory tone (CS: 3 kHz, 80 dB for 30 sec) that were co-terminated with electric foot shocks (US: 0.4 or 0.8 mA for 0.5 sec). Total 8 CS-US pairs were presented in pseudorandom intertrial intervals (varied from 60 to 120 sec). 24 hours after fear conditioning, mice were placed in context B to assess the recall of fear memory by being re-exposed to CS, but without US for 2 minutes.
(§2) To compare mPSCs without or after STDP, KCl-based and K-gluconate-based internal solutions were used for recording mIPSCs and mEPSCs, respectively. K-gluconate based solution was also used to record EPSCs and IPSCs evoked by interleaved stimulation. Series resistance (10-30 MΩ) was monitored throughout all experiments. mEPSCs were recorded at −70 mV holding potential in the presence of 1 μM tetrodotoxin (TTX) and 100 μM picrotoxin (Tocris, UK) while mIPSCs were measured at −70 mV in the presence of 1 μM TTX, 25 μM NBQX, and 50 μM 2-amino-5-phosphonovaleric acid (APV, Tocris). Miniature PSCs were analyzed with MiniAnalysis (Synaptosoft, Fort Lee, N.J.) or Clampfit 10.1 software (Molecular Devices). For PSC recordings with interleaved stimulation, the holding potential was briefly (˜40 ms) changed from −70 mV to +10 mV to reach the reversal potential of EPSC for isolation of putative IPSCs. For STDP experiments, stimulus intensity was adjusted to elicit EPSPs displaying 25%-30% of the maximum amplitudes. […]

The test system of assay [3] is mice that underwent weak fear conditioning. As to the kind of experiment: Corticosterone-induced PTSD-like memory impairment after weak fear conditioning (freezing). The class given is in vivo. The conditions noted are these: CORT 5 mg/kg i.p. The protocol:
as §1, with “minutes. […]” for “minutes.”
To assess contextual fear memory from cue conditioned animals, the mice were placed again in context A 2 hours after termination of the first recall test and then duration of freezing was measured for 2 minutes without presentation of the auditory cue. The mice were placed in context B 2 hours after termination of the first recall test and the freezing time during presentation of the auditory cue was measured for 2 minutes.

Assay [4] has as its system dorsal ITC neurons. As to the kind of experiment: Disynaptic IPSP input-output curves in dorsal ITC of CORT-treated mice. The class given is cell-based. As to conditions: vehicle-treated significantly increased. The protocol:
To induce PTSD-like memory impairment, corticosterone (CORT, 5 mg/kg) or vehicle (saline, 0.9% NaCl) was intraperitoneally (i.p.) injected immediately after fear conditioning as previously described. The cue-conditioning group underwent weak fear conditioning with the previously-described CS-US pairing paradigm in context A and was tested for fear recall toward the cue in context B at the next day.
To obtain mechanistic insights into the LTD impairment, we constructed the input-output curves of evoked disynaptic IPSPs. […] Thus, the LTD deficit in CORT-treated mice appears to result from the impaired augmentation of inhibitory inputs to the dorsal ITC neurons.

In another assay the test system is ITC neurons. As to the kind of experiment: Paired recording of unitary IPSCs (uIPSCs) between synaptically coupled ITC neurons.
Assay [5] concerns dorsal ITC neurons.
The next assay addresses T1, D4R at the dorsal ITC (Mus musculus, UniProt P51436).
T1 construct: endogenous in cells; host or cells: neurons of the mouse brain in vivo (dorsal ITC of the amygdala); mice from Jackson Laboratory
T1 sequence (P51436 1-387): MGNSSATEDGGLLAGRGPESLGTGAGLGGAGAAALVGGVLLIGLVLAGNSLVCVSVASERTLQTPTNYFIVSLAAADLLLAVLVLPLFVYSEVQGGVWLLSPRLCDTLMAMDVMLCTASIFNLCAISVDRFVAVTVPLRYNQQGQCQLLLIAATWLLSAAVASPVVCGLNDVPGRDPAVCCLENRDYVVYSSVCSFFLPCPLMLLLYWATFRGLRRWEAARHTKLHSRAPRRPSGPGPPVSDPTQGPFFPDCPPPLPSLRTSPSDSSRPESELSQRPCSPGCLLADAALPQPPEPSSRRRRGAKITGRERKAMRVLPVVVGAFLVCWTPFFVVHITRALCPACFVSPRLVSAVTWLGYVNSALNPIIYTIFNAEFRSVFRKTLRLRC
The assay can be described thus: Weak fear conditioning after bilateral drug infusion into the dorsal ITC (freezing). As to conditions: 500 nM, 0.5 μl bilaterally into dorsal ITC 20 minutes before fear conditioning; vs vehicle. The class given is in vivo, mice. The protocol:
Guide cannulae were implanted bilaterally (26 gauge, Plastics One, Roanoke, Va.) aimed into the dorsal ITC areas in the coordinates, AP−1.4 mm, ML±3.2 mm, DV−4.2 mm from the bregma, and were fixed in the skull with dental cement. The cannulae remained capped with internal dummy cannulae (33 gauges, Plastics One) after surgery. Animals were individually housed and allowed to recover at least for 1 week after surgery. The mice bilaterally received 0.5 μl of either L-745870 or vehicle through the injection cannula (33 gauge, Plastics One) connected to a 10-μl Hamilton syringe for 5 minutes at a rate of 0.1 μl/min using microinfusion pump (Harvard Apparatus, Holliston, Mass.) 20 minutes before fear conditioning. L-745870 was dissolved to 500 nM in 0.9% saline just before the infusion. Mice were kept with injector cannulae for additional 5 minutes after the end of infusion and then were subjected to fear conditioning. […] The subject mice were transcardially perfused right after the last behavioral tests and analyzed for the injection loci. […]
If DA-LTD at the dorsal ITC is a synaptic mechanism that regulates neural circuits conveying fear memory, manipulation of D4R activity or synaptic plasticity at the dorsal ITC should affect fear memory. […] We injected either vehicle or L-745870 bilaterally into the dorsal ITC areas and then assessed acquisition and expression of fear memory (FIG. 5A).

The subject of assay [6] is dorsal ITC neurons. As to the kind of experiment: STDP in dorsal ITC neurons of naive slices with or without GABAA receptor blockade. As to conditions: +4- and +6-ms interval delays; not in absence of picrotoxin. It is filed as cell-based, mice. The protocol: as §2, with “amplitudes. After obtaining stable baseline recording, 80 presynaptic stimuli were delivered at 2 Hz via metal stimulating electrode placed in LA while paired with action potentials induced by injection of depolarizing current to postsynaptic neurons. Quantal contents were estimated by obtaining the inverse square of the coefficient of variation (1/CV^2). […].” for “amplitudes.”

As for `CCCN1CCO[C@@H]2c3cc(O)ccc3OC[C@H]21` [PD-128907], the “induction of LTD at the dorsal ITC by receptor agonist” value (from here on “induction of LTD at the dorsal ITC”) in the assay on dorsal ITC neurons [1] was “did not”.

Take `Oc1cc2c(cc1O)C(c1ccccc1)CNCC2` (stereo not shown) [SKF-38393]: the “induction of LTD at the dorsal ITC” value with dorsal ITC neurons [1] was “did not”.

Regarding `CC#C[C@]1(O)CC[C@H]2[C@@H]3CCC4=CC(=O)CCC4=C3[C@@H](c3ccc(N(C)C)cc3)C[C@@]21C` [RU38486], in the assay on dorsal ITC neurons [1], the “effect on DA-LTD” value is given as “blocked”. Also, the “induction of LTD after weak fear conditioning” value with dorsal ITC neurons [2] is listed as “blocked”.

Turning to `C[C@]12C[C@H](O)[C@H]3[C@@H](CCC4=CC(=O)CC[C@@]43C)[C@@H]1CC[C@@H]2C(=O)CO` [CORT, corticosterone], the “induction of LTD in dorsal ITC of CORT-treated mice” value in the assay with dorsal ITC neurons [2] (CORT 5 mg/kg i.p. after conditioning, regardless of fear conditioning) is recorded as “LTD could not be triggered”. The “freezing to the context after cue conditioning only” value in assay [3] was “increased freezing levels”. For the same molecule, the “freezing to the conditioned cue 24 hr after weak fear conditioning” value in assay [3] (vs vehicle-injected, cue or context pairing) is “higher freezing levels”. For the same molecule, in the assay with dorsal ITC neurons [4], the “disynaptic IPSPs after weak fear conditioning” value is reported as “not altered”.

Turning to `Nc1nc2c(ncn2[C@@H]2O[C@H](COP(=O)(O)OP(O)(O)=S)[C@@H](O)[C@H]2O)c(=O)[nH]1` [GDPβS], the “LTD-induced increment of uIPSC amplitude, infused into postsynaptic ITC neurons” value in the assay with ITC neurons (GDPβS 0.5 mM in internal solution, postsynaptic neuron) is “not”. Besides, in the assay on ITC neurons (GDPβS 0.5 mM in internal solution, presynaptic neuron), the “LTD-induced increment of uIPSC amplitude, infused into presynaptic ITC neurons” value is “blocked”.

With `Cc1cccc(C(=O)NCN2CCN(c3ccccc3C#N)CC2)c1` [PD-168077, N-([4-(2-cyanophenyl)piperazine-1-yl]methyl)-3-methylbenzamide], the “induction of LTD at the dorsal ITC” value in the assay on dorsal ITC neurons [1] is given as “allowed for the induction of LTD”. Also, the “amplitude of uIPSCs when LTD was induced” value in the assay with ITC neurons (current injection to postsynaptic ITC neurons while stimulating LA in presence of PD-168077) was “markedly increased”.

Consider `OC1(c2ccc(Cl)cc2)CCN(Cc2c[nH]c3ccccc23)CC1` [L-741626], for which, in the assay with dorsal ITC neurons [1], the “effect on DA-LTD” value is reported as “did not affect DA-LTD”.

As for `COc1ccccc1N1CCN(CCCCNC(=O)c2ccc(-c3ccc(C(C)=O)cc3)cc2)CC1` [GR-103691], the “effect on DA-LTD” value in the assay on dorsal ITC neurons [1] is given as “did not affect DA-LTD”.

For the molecule `NCCc1ccc(O)c(O)c1` [DA, Dopamine], the “induction of LTD by the STDP protocol in the presence of DA” value in the assay with dorsal ITC neurons [1] (DA 30 mM) is reported as “LTD was readily induced”. In addition, the “changes in resting membrane potentials (RMPs) and excitability” value in the assay with dorsal ITC neurons [5] (DA 30 mM, before and after application) was “negligible changes”. Also, the “synaptic transmission on bath application alone” value with dorsal ITC neurons [5] (bath application of DA alone, no STDP) is “did not alter synaptic transmission”.

Consider `Clc1ccc(N2CCN(Cc3c[nH]c4ncccc34)CC2)cc1` [L-745870], for which the “effect on DA-LTD” value with dorsal ITC neurons [1] is “abolished DA-LTD”. Moreover, the “induction of LTD after weak fear conditioning” value with dorsal ITC neurons [2] is “interfered with the induction of LTD”. Besides, on D4R at the dorsal ITC, the “freezing at 24 hr after weak fear conditioning” value is on record as “significantly higher levels of freezing” and the “freezing levels during acquisition” value is listed as “comparable freezing levels”.

Regarding picrotoxin, in the assay with dorsal ITC neurons [6], the “synaptic plasticity by STDP in presence of GABAA receptor antagonist” value is listed as “LTP”.
